Test results from publication PMC8632988, “Inhibition of SYK and cSrc kinases can protect bone and cartilage in preclinical models of osteoarthritis and rheumatoid arthritis” (Scientific Reports, 2021).
Values joined by “and” are separate entries in the source; they are usually repeats but may differ in a detail not shown here. Identical values can stand only once.

Legend:
ARK5/NUAK1 = target: T1, ARK5/NUAK1 (Homo sapiens, UniProt O60285); assay: Kinase selectivity profile assay; format: biochemical
T1 construct: purchased Reaction Biology Corporation (assay service)
From the text: (§1) Kinase activity data was expressed as the percent remaining kinase activity in test samples compared to vehicle (dimethyl sulfoxide) reactions based on the radioactivity of reaction products (see Table S2). Experiment was replicated twice.

EPHA2 = target: T2, EPHA2 (Homo sapiens, UniProt P29317); assay: Kinase selectivity profile assay; format: biochemical; conditions: 500 nM, relative to DMSO
T2 construct: purchased Reaction Biology Corporation
From the text: as §1

TRKC = target: T3, TRKC (Homo sapiens, UniProt Q16288); assay: Kinase selectivity profile assay; format: biochemical; conditions: 500 nM; relative to DMSO; read-out: Residual enzymatic activity
T3 construct: purchased Reaction Biology Corporation
From the text: as §1

MARK3 = target: T4, MARK3 (Homo sapiens, UniProt P27448); assay: Kinase selectivity profile assay; format: biochemical; conditions: 500 nM; relative to DMSO; read-out: Residual enzymatic activity
T4 construct: purchased Reaction Biology Corporation
From the text: as §1

PAK2 = target: T5, PAK2 (Homo sapiens, UniProt Q13177); assay: Kinase selectivity profile assay; format: biochemical; conditions: 500 nM; relative to DMSO; read-out: Residual enzymatic activity
T5 construct: purchased Reaction Biology Corporation
From the text: as §1

LCK = target: T6, LCK (Homo sapiens, UniProt P06239); assay: Kinase selectivity profile assay; format: biochemical
T6 construct: purchased Reaction Biology Corporation (assay service)
From the text: as §1

CAMK1d = target: T7, CAMK1d (Homo sapiens, UniProt Q8IU85); assay: Kinase selectivity profile assay; format: biochemical; conditions: 500 nM; relative to DMSO; read-out: Residual enzymatic activity
T7 construct: purchased Reaction Biology Corporation
From the text: as §1

MARK1 = target: T8, MARK1 (Homo sapiens, UniProt Q9P0L2); assay: Kinase selectivity profile assay; format: biochemical; conditions: 500 nM; relative to DMSO; read-out: Residual enzymatic activity
T8 construct: purchased Reaction Biology Corporation
From the text: as §1

MARK2/PAR-1Ba = target: T9, MARK2/PAR-1Ba (Homo sapiens, UniProt Q7KZI7); assay: Kinase selectivity profile assay; format: biochemical; conditions: 500 nM; relative to DMSO; read-out: Residual enzymatic activity
T9 construct: purchased Reaction Biology Corporation
From the text: as §1

FES/FPS = target: T10, FES/FPS (Homo sapiens, UniProt P07332); assay: Kinase selectivity profile assay; format: biochemical; conditions: 500 nM; relative to DMSO; read-out: Residual enzymatic activity
T10 construct: purchased Reaction Biology Corporation
From the text: as §1

BMX/ETK = target: T11, BMX/ETK (Homo sapiens, UniProt P51813); assay: Kinase selectivity profile assay; format: biochemical
T11 construct: purchased Reaction Biology Corporation (assay service)
From the text: as §1

Aurora A = target: T12, Aurora A (Homo sapiens, UniProt O14965); assay: Kinase selectivity profile assay; format: biochemical; conditions: 500 nM; relative to DMSO; read-out: Residual enzymatic activity
T12 construct: purchased Reaction Biology Corporation
From the text: as §1

TLK2 = target: T13, TLK2 (Homo sapiens, UniProt Q86UE8); assay: Kinase selectivity profile assay; format: biochemical; conditions: 500 nM; relative to DMSO; read-out: Residual enzymatic activity
T13 construct: purchased Reaction Biology Corporation
From the text: as §1

CAMK1a = target: T14, CAMK1a (Homo sapiens, UniProt Q14012); assay: Kinase selectivity profile assay; format: biochemical; conditions: 500 nM; relative to DMSO; read-out: Residual enzymatic activity
T14 construct: purchased Reaction Biology Corporation
From the text: as §1

ITK = target: T15, ITK (Homo sapiens, UniProt Q08881); assay: Kinase selectivity profile assay; format: biochemical; conditions: 500 nM; relative to DMSO; read-out: Residual enzymatic activity
T15 construct: purchased Reaction Biology Corporation
From the text: as §1

JNK2 = target: T16, JNK2 (Homo sapiens, UniProt P45984); assay: Kinase selectivity profile assay; format: biochemical; conditions: 500 nM; relative to DMSO; read-out: Residual enzymatic activity
T16 construct: purchased Reaction Biology Corporation
From the text: as §1

MLK3/MAP3K11 = target: T17, MLK3/MAP3K11 (Homo sapiens, UniProt Q16584); assay: Kinase selectivity profile assay; format: biochemical
T17 construct: purchased Reaction Biology Corporation (Malvern, PA, USA)
From the text: as §1

NEK2 = target: T18, NEK2 (Homo sapiens, UniProt P51955); assay: Kinase selectivity profile assay; format: biochemical; conditions: 500 nM; relative to DMSO; read-out: Residual enzymatic activity
T18 construct: purchased Reaction Biology Corporation
From the text: as §1

PKG2/PRKG2 = target: T19, PKG2/PRKG2 (Homo sapiens, UniProt Q13237); assay: Kinase selectivity profile assay; format: biochemical; conditions: 500 nM; relative to DMSO; read-out: Residual enzymatic activity
T19 construct: purchased Reaction Biology Corporation
From the text: as §1

EGFR = target: T20, EGFR (Homo sapiens, UniProt P00533); assay: Kinase selectivity profile assay; format: biochemical; conditions: 500 nM, relative to DMSO
T20 construct: purchased Reaction Biology Corporation
From the text: as §1

KDR/VEGFR2 = target: T21, KDR/VEGFR2 (Homo sapiens, UniProt P35968); assay: Kinase selectivity profile assay; format: biochemical; conditions: 500 nM, relative to DMSO
T21 construct: purchased Reaction Biology Corporation
From the text: as §1

PAK1 = target: T22, PAK1 (Homo sapiens, UniProt Q13153); assay: Kinase selectivity profile assay; format: biochemical; conditions: 500 nM; relative to DMSO; read-out: Residual enzymatic activity
T22 construct: purchased Reaction Biology Corporation
From the text: as §1

TSSK3/STK22C = target: T23, TSSK3/STK22C (Homo sapiens, UniProt Q96PN8); assay: Kinase selectivity profile assay; format: biochemical; conditions: 500 nM; relative to DMSO; read-out: Residual enzymatic activity
T23 construct: purchased Reaction Biology Corporation
From the text: as §1

RET = target: T24, RET (Homo sapiens, UniProt P07949); assay: Kinase selectivity profile assay; format: biochemical
T24 construct: purchased Reaction Biology Corporation (Malvern, PA, USA)
From the text: as §1

ZIPK/DAPK3 = target: T25, ZIPK/DAPK3 (Homo sapiens, UniProt O43293); assay: Kinase selectivity profile assay; format: biochemical; conditions: 500 nM; relative to DMSO; read-out: Residual enzymatic activity
T25 construct: purchased Reaction Biology Corporation
From the text: as §1

[1] = system: Sprague-Dowley rats, medial meniscal tear (MMT) model; assay: Surgically induced meniscal tear OA in rats; format: in vivo, rat; conditions: day 21
Procedure: Medial meniscal tear (MMT) model was performed at Pharmenterprises, Russia according to the published procedure[31] and approved by Ethics Committee of Pharmenterprises. Male 4-month old Sprague-Dowley rats were anesthetized with Zoletil (Vibrac, France) and Xylazine (Interchemie werken "De Adelaar" BV, Netherlands) mixture. The medial collateral ligament was transected, and the medial meniscus was grasped with a hemostat and reflected proximally toward the femur. The meniscus was transected and then skin was closed with sutures. 60–90 min after surgery rats were subcutaneously injected with flexoprofen (VIC GROUP, Russia). Treatment groups (20 rats each) were intragastrically treated with MT-SYK-03 (100 and 500 mg/kg) or vehicle control (0.5% methylcellulose solution) 24 h before OA induction and then once daily for 21 day. Active control group was subcutaneously injected with zoledronic acid (0.1 mg/kg) 24 h before OA induction and then once every three days for 21 day. After 21 day animals were sacrificed; surgically operated right knee was removed and used for image analysis.

[2] = 500 nM, relative to DMSO, read-out: Residual enzymatic activity
[3] = 10-dose mode, threefold serial dilution from 10 μM
[4] = read-out: Residual enzymatic activity
[5] = 100 mg/kg intragastrically once daily
[6] = 500 mg/kg intragastrically once daily

T11 sequence (P51813 whole entry): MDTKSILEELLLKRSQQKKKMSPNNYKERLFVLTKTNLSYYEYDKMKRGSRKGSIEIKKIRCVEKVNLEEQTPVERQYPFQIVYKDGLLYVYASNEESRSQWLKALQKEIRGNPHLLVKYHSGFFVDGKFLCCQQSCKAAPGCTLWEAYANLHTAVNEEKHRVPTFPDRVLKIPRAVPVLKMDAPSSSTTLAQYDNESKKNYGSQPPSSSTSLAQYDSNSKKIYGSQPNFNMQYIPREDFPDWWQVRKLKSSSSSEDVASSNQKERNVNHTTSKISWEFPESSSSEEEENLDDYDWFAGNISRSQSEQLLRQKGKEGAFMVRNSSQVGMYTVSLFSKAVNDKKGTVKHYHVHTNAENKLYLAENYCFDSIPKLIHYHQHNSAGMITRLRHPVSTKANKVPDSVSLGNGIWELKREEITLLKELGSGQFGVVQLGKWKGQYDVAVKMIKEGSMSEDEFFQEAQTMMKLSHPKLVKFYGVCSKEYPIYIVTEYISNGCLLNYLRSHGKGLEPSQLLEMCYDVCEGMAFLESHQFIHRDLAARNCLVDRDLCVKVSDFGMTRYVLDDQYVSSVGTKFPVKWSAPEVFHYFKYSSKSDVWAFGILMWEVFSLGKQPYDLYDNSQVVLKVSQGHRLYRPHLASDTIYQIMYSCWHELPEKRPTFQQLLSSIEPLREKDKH
T6 sequence (P06239 whole entry): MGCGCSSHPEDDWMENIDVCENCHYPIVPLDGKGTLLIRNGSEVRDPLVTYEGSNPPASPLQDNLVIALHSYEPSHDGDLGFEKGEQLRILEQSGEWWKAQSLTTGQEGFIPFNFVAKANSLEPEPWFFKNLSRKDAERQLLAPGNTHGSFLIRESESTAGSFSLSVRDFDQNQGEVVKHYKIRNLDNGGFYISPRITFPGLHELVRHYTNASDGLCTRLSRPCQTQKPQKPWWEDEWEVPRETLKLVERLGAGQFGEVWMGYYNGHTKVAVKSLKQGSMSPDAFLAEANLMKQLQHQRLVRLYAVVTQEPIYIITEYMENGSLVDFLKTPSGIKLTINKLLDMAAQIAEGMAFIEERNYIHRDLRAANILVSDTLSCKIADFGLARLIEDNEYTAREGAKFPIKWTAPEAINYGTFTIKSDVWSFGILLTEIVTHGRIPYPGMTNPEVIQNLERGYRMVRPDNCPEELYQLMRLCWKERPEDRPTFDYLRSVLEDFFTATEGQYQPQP
T24 sequence (P07949 29-1114): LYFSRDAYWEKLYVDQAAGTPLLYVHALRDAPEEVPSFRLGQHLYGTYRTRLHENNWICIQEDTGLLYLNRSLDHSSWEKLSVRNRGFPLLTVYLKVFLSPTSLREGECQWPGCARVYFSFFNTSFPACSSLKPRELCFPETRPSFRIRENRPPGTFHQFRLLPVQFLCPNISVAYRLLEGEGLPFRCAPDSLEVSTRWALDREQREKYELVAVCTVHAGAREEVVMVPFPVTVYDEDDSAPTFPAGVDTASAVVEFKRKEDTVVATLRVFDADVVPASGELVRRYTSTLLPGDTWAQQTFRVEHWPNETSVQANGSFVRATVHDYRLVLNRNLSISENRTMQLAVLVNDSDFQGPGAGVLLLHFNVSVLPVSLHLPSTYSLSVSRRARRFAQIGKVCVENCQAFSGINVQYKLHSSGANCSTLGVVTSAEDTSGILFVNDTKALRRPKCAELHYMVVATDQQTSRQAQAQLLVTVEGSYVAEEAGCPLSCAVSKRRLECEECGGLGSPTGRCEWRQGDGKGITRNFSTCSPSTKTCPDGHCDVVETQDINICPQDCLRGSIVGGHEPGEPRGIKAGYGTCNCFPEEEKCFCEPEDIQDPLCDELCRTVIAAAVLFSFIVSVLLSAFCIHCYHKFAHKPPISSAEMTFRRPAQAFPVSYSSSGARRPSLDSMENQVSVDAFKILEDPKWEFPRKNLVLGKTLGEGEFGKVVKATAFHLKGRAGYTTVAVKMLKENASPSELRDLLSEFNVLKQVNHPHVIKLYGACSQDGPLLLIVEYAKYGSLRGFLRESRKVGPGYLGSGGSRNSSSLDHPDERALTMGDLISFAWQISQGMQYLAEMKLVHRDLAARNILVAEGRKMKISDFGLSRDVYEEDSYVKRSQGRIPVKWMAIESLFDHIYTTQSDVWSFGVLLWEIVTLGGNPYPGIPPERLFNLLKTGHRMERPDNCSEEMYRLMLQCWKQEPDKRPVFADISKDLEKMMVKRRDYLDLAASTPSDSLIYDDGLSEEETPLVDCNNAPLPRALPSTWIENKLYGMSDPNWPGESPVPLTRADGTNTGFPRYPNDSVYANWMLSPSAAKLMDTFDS
T2 sequence (P29317 24-976): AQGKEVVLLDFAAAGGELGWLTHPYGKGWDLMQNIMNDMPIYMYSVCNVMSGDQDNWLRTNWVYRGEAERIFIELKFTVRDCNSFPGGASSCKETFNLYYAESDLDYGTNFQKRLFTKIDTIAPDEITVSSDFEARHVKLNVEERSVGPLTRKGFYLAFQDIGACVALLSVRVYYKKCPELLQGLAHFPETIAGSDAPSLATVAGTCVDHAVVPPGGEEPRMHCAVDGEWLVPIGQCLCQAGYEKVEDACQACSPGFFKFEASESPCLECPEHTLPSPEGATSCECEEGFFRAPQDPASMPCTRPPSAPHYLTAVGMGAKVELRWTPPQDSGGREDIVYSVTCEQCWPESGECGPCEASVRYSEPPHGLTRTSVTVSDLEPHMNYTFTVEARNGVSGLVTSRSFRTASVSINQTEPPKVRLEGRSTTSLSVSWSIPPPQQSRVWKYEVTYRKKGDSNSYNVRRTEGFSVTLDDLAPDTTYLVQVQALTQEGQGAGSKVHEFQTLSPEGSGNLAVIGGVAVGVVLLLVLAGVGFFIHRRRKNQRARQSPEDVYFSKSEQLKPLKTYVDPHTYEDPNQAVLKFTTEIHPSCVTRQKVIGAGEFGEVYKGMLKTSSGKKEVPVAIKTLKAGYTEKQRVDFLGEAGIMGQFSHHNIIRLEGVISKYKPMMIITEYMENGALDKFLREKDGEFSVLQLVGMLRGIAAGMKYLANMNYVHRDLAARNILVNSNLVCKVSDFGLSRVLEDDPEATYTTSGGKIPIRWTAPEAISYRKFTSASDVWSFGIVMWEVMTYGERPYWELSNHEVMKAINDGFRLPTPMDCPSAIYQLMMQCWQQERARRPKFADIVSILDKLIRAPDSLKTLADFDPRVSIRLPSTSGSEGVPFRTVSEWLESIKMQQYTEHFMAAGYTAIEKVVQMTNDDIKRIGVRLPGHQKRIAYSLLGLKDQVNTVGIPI
T1 sequence (O60285 whole entry): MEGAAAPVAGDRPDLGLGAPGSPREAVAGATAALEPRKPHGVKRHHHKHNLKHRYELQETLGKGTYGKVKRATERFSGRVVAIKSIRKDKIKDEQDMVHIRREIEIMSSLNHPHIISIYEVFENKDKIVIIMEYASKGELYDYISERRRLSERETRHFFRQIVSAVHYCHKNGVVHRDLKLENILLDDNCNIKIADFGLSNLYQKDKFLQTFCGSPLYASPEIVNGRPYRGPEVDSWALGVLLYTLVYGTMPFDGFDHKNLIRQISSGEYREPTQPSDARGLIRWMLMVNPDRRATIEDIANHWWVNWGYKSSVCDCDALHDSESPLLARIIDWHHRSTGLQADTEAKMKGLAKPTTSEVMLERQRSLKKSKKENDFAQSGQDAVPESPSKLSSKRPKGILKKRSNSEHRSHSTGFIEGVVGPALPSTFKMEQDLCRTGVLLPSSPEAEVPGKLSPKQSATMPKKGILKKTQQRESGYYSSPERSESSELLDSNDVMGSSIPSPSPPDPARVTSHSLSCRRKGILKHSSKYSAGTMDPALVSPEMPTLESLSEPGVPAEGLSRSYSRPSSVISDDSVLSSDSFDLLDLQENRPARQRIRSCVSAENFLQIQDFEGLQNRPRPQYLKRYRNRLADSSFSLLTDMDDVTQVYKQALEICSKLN
T20 sequence (P00533 25-1210): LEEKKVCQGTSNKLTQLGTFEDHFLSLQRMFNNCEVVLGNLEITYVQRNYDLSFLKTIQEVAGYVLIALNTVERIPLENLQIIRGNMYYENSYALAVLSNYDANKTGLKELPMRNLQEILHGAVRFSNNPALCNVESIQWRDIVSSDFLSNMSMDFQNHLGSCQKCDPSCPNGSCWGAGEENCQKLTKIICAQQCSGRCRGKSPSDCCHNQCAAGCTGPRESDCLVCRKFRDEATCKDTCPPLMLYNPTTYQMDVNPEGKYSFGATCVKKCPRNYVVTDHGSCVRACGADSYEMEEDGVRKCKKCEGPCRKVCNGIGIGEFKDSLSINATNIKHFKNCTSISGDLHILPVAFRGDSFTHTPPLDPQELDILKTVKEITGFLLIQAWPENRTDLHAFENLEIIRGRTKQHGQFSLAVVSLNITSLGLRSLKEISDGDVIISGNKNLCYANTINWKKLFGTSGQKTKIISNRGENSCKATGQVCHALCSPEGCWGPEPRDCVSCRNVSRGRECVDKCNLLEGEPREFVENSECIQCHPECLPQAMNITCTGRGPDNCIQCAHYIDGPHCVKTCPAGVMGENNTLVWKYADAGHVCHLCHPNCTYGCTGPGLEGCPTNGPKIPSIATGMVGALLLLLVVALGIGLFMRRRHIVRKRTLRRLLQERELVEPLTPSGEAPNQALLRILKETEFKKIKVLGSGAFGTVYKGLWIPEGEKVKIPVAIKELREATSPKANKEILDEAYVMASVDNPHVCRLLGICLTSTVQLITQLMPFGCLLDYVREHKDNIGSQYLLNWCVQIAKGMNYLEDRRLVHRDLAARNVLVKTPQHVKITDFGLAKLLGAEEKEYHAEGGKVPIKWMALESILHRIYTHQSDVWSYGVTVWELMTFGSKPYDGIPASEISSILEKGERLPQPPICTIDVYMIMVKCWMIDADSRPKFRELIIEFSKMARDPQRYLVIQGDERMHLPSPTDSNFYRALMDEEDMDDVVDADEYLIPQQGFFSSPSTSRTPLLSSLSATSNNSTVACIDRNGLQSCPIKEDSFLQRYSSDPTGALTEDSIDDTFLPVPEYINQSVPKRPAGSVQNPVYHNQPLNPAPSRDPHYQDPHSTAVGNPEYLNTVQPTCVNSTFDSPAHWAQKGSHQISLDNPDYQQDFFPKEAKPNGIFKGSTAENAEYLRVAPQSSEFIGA

COc1cc(Nc2ncnc(Nc3cc4c(cn3)NC(=O)C(C)(C)O4)n2)cc(OC)c1OC [MT-SYK-03]
remaining activity at 0.5 µM (ARK5/NUAK1; [2]): 49.7%
IC50 (ARK5/NUAK1; [3]): 376 nM
Residual enzymatic activity (EPHA2): 56.3%
remaining activity at 0.5 µM (EPHA2; [4]): > 54%
remaining activity at 0.5 µM (TRKC): 84.5%
remaining activity at 0.5 µM (MARK3): 97.1%
remaining activity at 0.5 µM (PAK2): 94.1%
remaining activity at 0.5 µM (LCK; [2]): 12%
IC50 (LCK; [3]): 20 nM and 20.1 nM
remaining activity at 0.5 µM (CAMK1d): 108%
remaining activity at 0.5 µM (MARK1): 95.7%
remaining activity at 0.5 µM (MARK2/PAR-1Ba): 97.9%
remaining activity at 0.5 µM (FES/FPS): 92.2%
remaining activity at 0.5 µM (BMX/ETK; [2]): 18%
IC50 (BMX/ETK; [3]): 199 nM
remaining activity at 0.5 µM (Aurora A): 74.4%
remaining activity at 0.5 µM (TLK2): 95.6%
remaining activity at 0.5 µM (CAMK1a): 100%
remaining activity at 0.5 µM (ITK): 102%
remaining activity at 0.5 µM (JNK2): 92.6%
remaining activity at 0.5 µM (MLK3/MAP3K11; [2]): 31.4%
IC50 (MLK3/MAP3K11; [3]): 25.6 nM
remaining activity at 0.5 µM (NEK2): 86%
remaining activity at 0.5 µM (PKG2/PRKG2): 94.2%
Residual enzymatic activity (EGFR): 59.6%
remaining activity at 0.5 µM (EGFR; [4]): > 54%
Residual enzymatic activity (KDR/VEGFR2): did not inhibit
remaining activity at 0.5 µM (KDR/VEGFR2; [4]): 88.6%
remaining activity at 0.5 µM (PAK1): 100%
remaining activity at 0.5 µM (TSSK3/STK22C): 99.9%
remaining activity at 0.5 µM (RET; [2]): 23%
IC50 (RET; [3]): 13.5 nM
remaining activity at 0.5 µM (ZIPK/DAPK3): 98.4%
Lesion area [1, 5]: 37.3 ± 3.3%
Lesion depth [1, 5]: 72.5 ± 6.0%
Lesion area [1, 6]: 30.5 ± 2.8%
Lesion depth [1, 6]: 35.0 ± 3.0% and 35.0 ± 3.0& %
